# Tests used:
# [1] = tested on: mouse; conditions: cited from earlier work
# [2] = Uptake of gabapentin following intracolonic administration of gabapentin or gabapentin prodrugs in rats; format: in vivo; conditions: dose equivalent to 25 mg gabapentin per kg
# Procedure: Sustained release oral dosage forms, which release drug slowly over periods of 6–24 hours, generally release a significant proportion of the dose within the colon. […] This experiment was conducted to assess the suitability of gabapentin prodrugs for use in an oral sustained release dosage form.
# Rats were obtained commercially and were pre-cannulated in the both the ascending colon and the jugular vein. Animals were conscious at the time of the experiment. All animals were fasted overnight and until 4 hours post-dosing. Gabapentin or gabapentin prodrugs (59), (63), (69), (72), (77), (79), (85), (117) and (126) were administered as a solution (in water or PEG 400) directly into the colon via the cannula at a dose equivalent to 25 mg of gabapentin per kg. Blood samples (0.5 mL) were obtained from the jugular cannula at intervals over 8 hours and were quenched immediately by addition of acetonitrile/methanol to prevent further conversion of the prodrug. Blood samples were analyzed as described below.
# • 1. In blank 1.5 mL eppendorf tubes, 300 μL of 50/50 acetonitrile/methanol and 20 μL of p-chlorophenylalanine was added as an internal standard. • 2. […]
# An API 2000 LC/MS/MS spectrometer equipped with Shidmadzu 10DVp binary pumps and a CTC HTS-PAL autosampler were used in the analysis. […] The peaks were integrated using Analyst 1.1 quantitation software.
SMILES,"toxicity (LD50, mouse) [1]",gabapentin AUC relative to colonic administration of gabapentin itself [2],maximum plasma concentration of gabapentin (Cmax) relative to colonic administration of gabapentin itself [2]
NCC1(CC(=O)O)CCCCC1 [gabapentin],more than 8000 mg/kg,–,–
"CC(OC(=O)NCC1(CC(=O)O)CCCCC1)OC(=O)C(C)C (stereo not drawn) [(77), 1-{[(α-Isobutanoyloxyethoxy)carbonyl]aminomethyl}-1-Cyclohexane Acetic Acid]",–,greater than 10 fold,greater than 10 fold
O=C1CC2(CCCCC2)CN1 [lactam (5)],300 mg/kg,–,–
